Laboratory results taken from the Kinase Knowledgebase extract (Sharma et al. 2016).

What follows are molecules tested against MAPK14 (human) (UniProt Q16539) (assay: Enzyme Assay).
Chain of MAPK14 (human) (Q16539 whole entry, looked up): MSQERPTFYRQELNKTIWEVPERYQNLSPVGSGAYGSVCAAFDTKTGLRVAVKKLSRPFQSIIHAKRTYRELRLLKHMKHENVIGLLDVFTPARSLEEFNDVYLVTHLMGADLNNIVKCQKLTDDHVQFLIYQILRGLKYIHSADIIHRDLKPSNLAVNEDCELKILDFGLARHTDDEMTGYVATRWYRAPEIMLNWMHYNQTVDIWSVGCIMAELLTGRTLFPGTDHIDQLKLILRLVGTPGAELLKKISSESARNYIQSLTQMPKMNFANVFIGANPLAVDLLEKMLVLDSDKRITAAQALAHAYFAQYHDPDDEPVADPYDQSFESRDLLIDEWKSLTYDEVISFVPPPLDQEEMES

IC50, < 0.01 µM:
Cc1ccc(-n2nc(C(C)(C)C)cc2NC(=O)N[C@H]2CC[C@@H](Oc3ccc4nnc(CN5CCN(C)C(CO)C5)n4c3)c3ccccc32)cc1 (stereo partly specified)
C[C@H]1CCCCN1c1nnc2ccc(O[C@@H]3CC[C@H](NC(=O)Nc4cc(C(C)(C)C)nn4-c4cccc(OCCN5C6CCCC5CC6)c4)c4ccccc43)cn12
Cc1ccc(-n2nc(C(C)(C)C)cc2NC(=O)N[C@H]2CC[C@@H](Oc3ccc4nnc(N5CCCC[C@@H]5C)n4c3)c3ccccc32)cc1
Cc1ccc(-n2nc(C(C)(C)C)cc2NC(=O)N[C@H]2CC[C@@H](Oc3ccc4nnc(N5CC[C@H](CO)C5)n4c3)c3ccccc32)cc1
Cc1ccc(-n2nc(C(C)(C)C)cc2NC(=O)N[C@H]2CC[C@@H](Oc3ccc4nnc(N5CCC[C@@H](O)C5)n4c3)c3ccccc32)cc1
Cc1ccc(-n2nc(C(C)(C)C)cc2NC(=O)N[C@H]2CC[C@@H](Oc3ccc4nnc(N(C)C)n4c3)c3ccccc32)cc1
